Experimental data taken from publication PMC4965013, “Open Source Drug Discovery with the Malaria Box Compound Collection for Neglected Diseases and Beyond” (PLoS Pathogens, 2016).

What was measured:
[1] = test system: P. falciparum 3D7 trophozoites; assay: Metabolomic fingerprint profiling LC-MS; type: cell-based, Plasmodium falciparum; design: UDP-D-glucose / ADP-D-glucose: unit not given here; settings: for Acetyllysine / N-acetyl-L-ornithine / N-carbamoyl-L-aspartate / NADPH / dAMP / dCMP / dTDP / dTMP / dTTP / dihydroorotate / orotate / DLH / DLS/SDL/SID / PD / PEE / PVNF / 3-phosphoglycerate / ADP-D-glucose / ATP / CDP / D-sedoheptulose-1/7-phosphate / FAD / GMP / NAD+ / NADP+ / Octoluse Bisphosphate / Pyroglutamic acid / UDP-D-glucose / UDP-D-glucuronate / UDP-N-acetyl-glucosamine / UDP / UMP / UTP / a-ketoglutarate / citrate/isocitrate / cytidine / dATP / dGMP/AMP / fumarate / glucose-1/6-phosphate / glycerate / guanine / guanosine / hypoxanthine / indole / inosine / nicotinate / ornithine / phosphoenolpyruvate / pyruvate / ribose-phosphate / sarcosine/alanine / sn-glycerol-3-phosphate / succinate/methylmalonic acid / uridine / xanthosine: S2 Table Metabolomics; for Acetyllysine: metabolite Acetyllysine; for N-acetyl-L-ornithine: metabolite N-acetyl-L-ornithine; for N-carbamoyl-L-aspartate: metabolite N-carbamoyl-L-aspartate; for NADPH: metabolite NADPH; for dAMP: metabolite dAMP; for dCMP: metabolite dCMP; for dTDP: metabolite dTDP; for dTMP: metabolite dTMP; for dTTP: metabolite dTTP; for dihydroorotate: metabolite dihydroorotate; for orotate: metabolite orotate; for DLH: peptide DLH; for DLS/SDL/SID: peptide DLS/SDL/SID; for PD: peptide PD; for PEE: peptide PEE; for PVNF: peptide PVNF; for 3-phosphoglycerate: metabolite 3-phosphoglycerate; for ADP-D-glucose: metabolite ADP-D-glucose; for ATP: metabolite ATP; for CDP: metabolite CDP; for CDP / D-sedoheptulose-1/7-phosphate / GMP / Octoluse Bisphosphate / UDP / UMP / UTP / citrate/isocitrate / dGMP/AMP / fumarate / glucose-1/6-phosphate / glycerate / guanine / guanosine / inosine / pyruvate / sarcosine/alanine / succinate/methylmalonic acid / uridine / xanthosine: change in metabolite level after compound treatment; for D-sedoheptulose-1/7-phosphate: metabolite D-sedoheptulose-1/7-phosphate; for FAD: metabolite FAD; for GMP: metabolite GMP; for NAD+: metabolite NAD+; for NADP+: metabolite NADP+; for Octoluse Bisphosphate: metabolite Octoluse Bisphosphate; for Pyroglutamic acid: metabolite Pyroglutamic acid; for UDP-D-glucose: metabolite UDP-D-glucose; for UDP-D-glucuronate: metabolite UDP-D-glucuronate; for UDP-N-acetyl-glucosamine: metabolite UDP-N-acetyl-glucosamine; for UDP: metabolite UDP; for UMP: metabolite UMP; for UTP: metabolite UTP; for a-ketoglutarate: metabolite a-ketoglutarate; for citrate/isocitrate: metabolite citrate/isocitrate; for cytidine: metabolite cytidine; for dATP: metabolite dATP; for dGMP/AMP: metabolite dGMP/AMP; for fumarate: metabolite fumarate; for glucose-1/6-phosphate: metabolite glucose-1/6-phosphate; for glycerate: metabolite glycerate; for guanine: metabolite guanine; for guanosine: metabolite guanosine; for hypoxanthine: metabolite hypoxanthine; for indole: metabolite indole; for inosine: metabolite inosine; for 2_3-Diphosphoglyceric acid / 4-phosphopantothenate / 6-phospho-D-gluconate / FMN / IMP / Pyrophosphate / Sedoheptoluse bisphosphate / cyclic-AMP / glutathione disulfide / lactate / myo-inositol: metabolite level change after treatment; for nicotinate: metabolite nicotinate; for ornithine: metabolite ornithine; for phosphoenolpyruvate: metabolite phosphoenolpyruvate; for pyruvate: metabolite pyruvate; for ribose-phosphate: metabolite ribose-phosphate; for sarcosine/alanine: metabolite sarcosine/alanine; for sn-glycerol-3-phosphate: metabolite sn-glycerol-3-phosphate; for succinate/methylmalonic acid: metabolite succinate/methylmalonic acid; for uridine: metabolite uridine; for xanthosine: metabolite xanthosine
P. falciparum = assay: EC50 listed in S2 Table Metabolomics (used to set the concentration tested); type: cell-based; settings: Plasmodium falciparum; EC50 used for Factor_XEC50 in metabolomics; read-out: EC50_nM

## Cc1ccc(-c2cc3nc4c(c(O)n3n2)CCCC4)cc1 [MMV006937]
[1]
  Acetyllysine: 0.001543
  N-acetyl-L-ornithine: -0.1685
  N-carbamoyl-L-aspartate: 1.991
  NADPH: -0.4265
  dAMP: -0.0863
  dCMP: -1.279
  dTDP: -1.586
  dTMP: -1.181
  dTTP: -2.058
  dihydroorotate: 2.759
  orotate: -1.871
  DLH: -0.331
  DLS/SDL/SID: -0.7353
  PD: 0.3712
  PEE: -0.2807
  PVNF: -1.612
  3-phosphoglycerate: -0.6487
  ADP-D-glucose: -0.1406
  ATP: -0.4135
  CDP: -1.006
  D-sedoheptulose-1/7-phosphate: 0.1087
  FAD: 0.1332
  GMP: -0.07362
  NAD+: 1.3162
  NADP+: -0.2641
  Octoluse Bisphosphate: -0.3
  Pyroglutamic acid: -0.3275
  UDP-D-glucose: -0.04224
  UDP-D-glucuronate: -0.6063
  UDP-N-acetyl-glucosamine: -0.2962
  UDP: -1.454
  UMP: -1.3
  UTP: -2.161
  a-ketoglutarate: -0.5175
  citrate/isocitrate: -0.9752
  cytidine: 0.2747
  dATP: 0.08499
  dGMP/AMP: -0.2088
  fumarate: 0.7624
  glucose-1/6-phosphate: -0.09446
  glycerate: 0.7002
  guanine: 0.3064
  guanosine: 0.2389
  hypoxanthine: -0.05386
  indole: -0.1272
  inosine: -0.07571
  2_3-Diphosphoglyceric acid: -0.6436
  4-phosphopantothenate: -0.3901
  6-phospho-D-gluconate: -0.1214
  FMN: -0.5746
  IMP: 0.1416
  Pyrophosphate: -0.6696
  Sedoheptoluse bisphosphate: 0.01407
  cyclic-AMP: -0.2332
  glutathione disulfide: 0.02779
  lactate: -0.3487
  myo-inositol: 0.03438
  nicotinate: -0.2273
  ornithine: -0.08655
  phosphoenolpyruvate: -0.5043
  pyruvate: -0.2395
  ribose-phosphate: 0.1461
  sarcosine/alanine: 0.1551
  sn-glycerol-3-phosphate: -0.1355
  succinate/methylmalonic acid: -0.2134
  uridine: -0.8059
  xanthosine: -0.1801
P. falciparum
  EC50: 396 nM

## CCOc1ccc(-c2nonc2NC(=O)c2cccc(C)c2)cc1OCC [MMV665805]
[1]
  Acetyllysine: -2.655
  N-acetyl-L-ornithine: -3.165
  N-carbamoyl-L-aspartate: -1.056
  NADPH: 0.0179
  dAMP: -0.2659
  dCMP: -0.0001746
  dTDP: -0.4156
  dTMP: 0.168
  dTTP: -1.808
  dihydroorotate: -0.8461
  orotate: -0.316
  DLH: -3.43
  DLS/SDL/SID: -2.376
  PD: -4.256
  PEE: -1.272
  PVNF: -3.291
  3-phosphoglycerate: -0.4238
  ADP-D-glucose: -0.07023
  ATP: -0.872
  CDP: 0.2433
  D-sedoheptulose-1/7-phosphate: 0.2738
  FAD: -1.216
  GMP: -1.407
  NAD+: -0.2783
  NADP+: 0.09325
  Octoluse Bisphosphate: -2.628
  Pyroglutamic acid: 0.2488
  UDP-D-glucose: -0.08929
  UDP-D-glucuronate: 0.1004
  UDP-N-acetyl-glucosamine: -0.1333
  UDP: 0.1418
  UMP: -2.433
  UTP: -1.276
  a-ketoglutarate: 0.06268
  citrate/isocitrate: -0.7764
  cytidine: -0.5056
  dATP: -1.548
  dGMP/AMP: 0.3312
  fumarate: -2.16
  glucose-1/6-phosphate: -1.496
  glycerate: -1.128
  guanine: -1.378
  guanosine: -1.192
  hypoxanthine: 0.2303
  indole: 0.06669
  inosine: -2.254
  2_3-Diphosphoglyceric acid: -1.518
  4-phosphopantothenate: -1.982
  6-phospho-D-gluconate: -1.236
  FMN: -1.528
  IMP: -1.238
  Pyrophosphate: -1.477
  Sedoheptoluse bisphosphate: -1.741
  cyclic-AMP: -2.892
  glutathione disulfide: -1.641
  lactate: -4.838
  myo-inositol: -5.977
  nicotinate: -0.4798
  ornithine: -0.1601
  phosphoenolpyruvate: 0.09842
  pyruvate: -2.577
  ribose-phosphate: -0.0001746
  sarcosine/alanine: -2.25
  sn-glycerol-3-phosphate: -0.6654
  succinate/methylmalonic acid: -1.698
  uridine: -2.032
  xanthosine: 0.4761
P. falciparum
  EC50: 117 nM
